# The source made the active and inactive calls. The calls are words filed in the database; no cut-off is given here.
# Key:
# Trypanosoma brucei [1] = test: Inhibition of Trypanosoma brucei PTR1 at 50 uM using H2B as substrate incubated for 10 mins followed by addition of NADPH measured for 10 to 50 mins
# [2] = Solubility of compound in PBS incubated for 18 hrs by UV-visible spectroscopic analysis; format: physicochemical; conditions: buffer
# [3] = target: Thymidylate synthase (Homo sapiens) (UniProt P04818); test: Inhibition of human thymidylate synthase at 50 uM using folic aid as substrate by spectrophotometric analysis
# Leishmania mexicana [4] = test: Inhibition of Leishmania mexicana DHFR at 50 uM using folic aid as substrate by spectrophotometric analysis
# [5] = target: Voltage-gated inwardly rectifying potassium channel KCNH2 (Homo sapiens, UniProt Q12809); test: Inhibition of human ERG in membranes incubated for 2 hrs by fluorescence polarization assay
# Cytochrome P450 1A2 [6] = target: T1, Cytochrome P450 1A2 (Homo sapiens, UniProt P05177); test: Inhibition of human microsomal CYP1A2 expressed in baculovirus infected BTI-TN-5B1-4 cells at 10 uM incubated for 30 mins by luciferase assay; format: ADME; conditions: bti-tn-5b1-4, 0.5 h, 10 µM
# T1 sequence (P05177 whole entry): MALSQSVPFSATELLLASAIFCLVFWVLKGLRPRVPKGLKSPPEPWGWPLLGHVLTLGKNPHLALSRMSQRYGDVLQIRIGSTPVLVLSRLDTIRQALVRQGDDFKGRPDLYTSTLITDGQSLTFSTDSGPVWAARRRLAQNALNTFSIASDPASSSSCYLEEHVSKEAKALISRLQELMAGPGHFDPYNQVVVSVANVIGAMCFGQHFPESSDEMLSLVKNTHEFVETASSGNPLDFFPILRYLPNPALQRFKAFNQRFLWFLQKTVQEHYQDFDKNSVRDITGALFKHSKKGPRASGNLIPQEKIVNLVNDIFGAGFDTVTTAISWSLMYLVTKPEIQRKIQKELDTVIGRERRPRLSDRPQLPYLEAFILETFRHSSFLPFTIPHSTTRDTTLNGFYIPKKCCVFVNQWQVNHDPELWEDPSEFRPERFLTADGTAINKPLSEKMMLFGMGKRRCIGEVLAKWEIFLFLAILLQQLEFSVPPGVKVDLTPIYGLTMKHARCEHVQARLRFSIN
# Cytochrome P450 1A2 [7] = target: T1, Cytochrome P450 1A2; test: Inhibition of human microsomal CYP1A2 expressed in baculovirus infected BTI-TN-5B1-4 cells incubated for 30 mins by luciferase assay; format: ADME
# [8] = Half life BALB/c mouse blood at 1 mg/kg, iv administered as single dose by HPLC analysis; format: ADME, organism-based
# [9] = test system: Trypanosoma brucei brucei; test: Antitrypanosomal activity against Trypanosoma brucei brucei Lister 427 bloodstream forms compound treated with cyclodextrins after 72 hrs by resazurin-based assay; format: functional, organism-based; conditions: Lister 427, 72 h
# [10] = test system: Trypanosoma brucei brucei; test: Antitrypanosomal activity against Trypanosoma brucei brucei Lister 427 bloodstream forms at 10 uM after 72 hrs by resazurin-based assay; format: functional, organism-based
# [11] = Cytotoxicity against human THP1 cells compound treated through encapsulation in PLGA nanoparticles after 72 hrs by MTT assay; format: cell-based; conditions: THP-1 cells, read-out: NOAEL
# [12] = Cytotoxicity against human THP1 cells after 72 hrs by MTT assay; format: cell-based; conditions: THP-1 cells
# [13] = Drug uptake in BALB/c mouse blood at 1 mg/kg, iv administered as single dose after 30 mins by HPLC analysis; format: ADME, organism-based; conditions: in vivo, 0.5 h
# 786-0 = test: Mitochondrial toxicity in human 786-O cells incubated for 6 hrs by mitotracker red staining based-uptake method; format: cell-based; conditions: 786-0, 6 h
# Leishmania mexicana [14] = test: Inhibition of Leishmania mexicana PTR1 at 50 uM using H2B as substrate incubated for 10 mins followed by addition of NADPH measured for 10 to 50 mins
# Cytochrome P450 2C19 = Cytochrome P450 2C19 (Homo sapiens, UniProt P33261); test: Inhibition of human microsomal CYP2C19 expressed in baculovirus infected BTI-TN-5B1-4 cells incubated for 30 mins by luciferase assay; format: ADME
# Cytochrome P450 3A4 = Cytochrome P450 3A4 (Homo sapiens, UniProt P08684); test: Inhibition of human microsomal CYP3A4 expressed in baculovirus infected BTI-TN-5B1-4 cells incubated for 30 mins by luciferase assay; format: ADME
# in vitro = conditions: human, THP-1 cells
# Description: Selectivity index, ratio of CC50 for human THP1 cells to EC50 for Trypanosoma brucei brucei Lister 427 bloodstream forms
# [15] = Drug uptake in BALB/c mouse plasma at 1 mg/kg, po administered as single dose through encapsulation in PLGA nanoparticles by HPLC analysis; format: ADME, organism-based; conditions: in vivo
# [16] = test system: Trypanosoma brucei brucei; test: Antitrypanosomal activity against Trypanosoma brucei brucei Lister 427 bloodstream forms assessed as synergy coefficient at 1.25 to 5 uM after 72 hrs in presence of MTX by resazurin-based assay; format: functional
# A549 = test: Cytotoxicity against human A549 cells at 100 uM after 48 hrs by cell titer glo assay; format: cell-based; conditions: a549, 48 h
# WI-38 = test: Cytotoxicity against human WI38 cells at 100 uM after 48 hrs by cell titer glo assay; format: cell-based; conditions: wi-38, 48 h
# Dihydrofolate reductase = Dihydrofolate reductase (Homo sapiens, UniProt P00374); test: Inhibition of human DHFR using folic aid as substrate by spectrophotometric analysis
# [17] = Cytotoxicity against human THP1 cells compound treated with cyclodextrins after 72 hrs by MTT assay; format: cell-based; conditions: THP-1 cells, read-out: NOAEL
# [18] = Drug uptake in NMRI mouse plasma at 4 mg/kg, po administered with cyclodextrins by HPLC analysis; format: ADME, organism-based; conditions: in vivo
# Cytochrome P450 2C9 = Cytochrome P450 2C9 (Homo sapiens, UniProt P11712); test: Inhibition of human microsomal CYP2C9 expressed in baculovirus infected BTI-TN-5B1-4 cells incubated for 30 mins by luciferase assay; format: ADME
# [19] = Drug uptake in BALB/c mouse plasma at 1 mg/kg, iv administered as single dose through encapsulation in PLGA nanoparticles by HPLC analysis; format: ADME, organism-based; conditions: in vivo
# [20] = Inhibition of Trypanosoma brucei PTR1 using H2B as substrate incubated for 10 mins followed by addition of NADPH measured for 10 to 50 mins
# [21] = test system: Trypanosoma brucei brucei; test: Antitrypanosomal activity against Trypanosoma brucei brucei Lister 427 bloodstream forms after 72 hrs by resazurin-based assay; format: functional, organism-based; conditions: Lister 427, 72 h
# Cytochrome P450 2D6 = Cytochrome P450 2D6 (Homo sapiens, UniProt P10635); test: Inhibition of human microsomal CYP2D6 expressed in baculovirus infected BTI-TN-5B1-4 cells incubated for 30 mins by luciferase assay; format: ADME
# [22] = test system: Trypanosoma brucei brucei; test: Antitrypanosomal activity against Trypanosoma brucei brucei Lister 427 bloodstream forms compound treated through encapsulation in PLGA nanoparticles after 72 hrs by resazurin-based assay; format: functional, organism-based; conditions: Lister 427, 72 h
# Trypanosoma brucei [23] = test: Inhibition of Trypanosoma brucei DHFR at 50 uM using folic aid as substrate by spectrophotometric analysis
# Chain of Cytochrome P450 2C19 (P33261 whole entry): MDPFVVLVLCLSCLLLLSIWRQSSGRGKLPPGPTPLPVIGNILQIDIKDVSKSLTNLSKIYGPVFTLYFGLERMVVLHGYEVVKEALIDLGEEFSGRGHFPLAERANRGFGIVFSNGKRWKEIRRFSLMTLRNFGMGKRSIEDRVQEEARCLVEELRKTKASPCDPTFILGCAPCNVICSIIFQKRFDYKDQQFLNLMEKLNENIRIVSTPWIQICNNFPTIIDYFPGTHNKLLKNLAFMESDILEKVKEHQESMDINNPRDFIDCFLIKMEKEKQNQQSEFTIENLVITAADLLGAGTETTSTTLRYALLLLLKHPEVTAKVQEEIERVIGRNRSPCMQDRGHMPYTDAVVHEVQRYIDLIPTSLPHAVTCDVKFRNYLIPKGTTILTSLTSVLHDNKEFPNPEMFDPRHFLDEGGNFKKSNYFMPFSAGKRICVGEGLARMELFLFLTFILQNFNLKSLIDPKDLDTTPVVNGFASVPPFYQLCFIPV
# Chain of Voltage-gated inwardly rectifying potassium channel KCNH2 (Q12809 whole entry): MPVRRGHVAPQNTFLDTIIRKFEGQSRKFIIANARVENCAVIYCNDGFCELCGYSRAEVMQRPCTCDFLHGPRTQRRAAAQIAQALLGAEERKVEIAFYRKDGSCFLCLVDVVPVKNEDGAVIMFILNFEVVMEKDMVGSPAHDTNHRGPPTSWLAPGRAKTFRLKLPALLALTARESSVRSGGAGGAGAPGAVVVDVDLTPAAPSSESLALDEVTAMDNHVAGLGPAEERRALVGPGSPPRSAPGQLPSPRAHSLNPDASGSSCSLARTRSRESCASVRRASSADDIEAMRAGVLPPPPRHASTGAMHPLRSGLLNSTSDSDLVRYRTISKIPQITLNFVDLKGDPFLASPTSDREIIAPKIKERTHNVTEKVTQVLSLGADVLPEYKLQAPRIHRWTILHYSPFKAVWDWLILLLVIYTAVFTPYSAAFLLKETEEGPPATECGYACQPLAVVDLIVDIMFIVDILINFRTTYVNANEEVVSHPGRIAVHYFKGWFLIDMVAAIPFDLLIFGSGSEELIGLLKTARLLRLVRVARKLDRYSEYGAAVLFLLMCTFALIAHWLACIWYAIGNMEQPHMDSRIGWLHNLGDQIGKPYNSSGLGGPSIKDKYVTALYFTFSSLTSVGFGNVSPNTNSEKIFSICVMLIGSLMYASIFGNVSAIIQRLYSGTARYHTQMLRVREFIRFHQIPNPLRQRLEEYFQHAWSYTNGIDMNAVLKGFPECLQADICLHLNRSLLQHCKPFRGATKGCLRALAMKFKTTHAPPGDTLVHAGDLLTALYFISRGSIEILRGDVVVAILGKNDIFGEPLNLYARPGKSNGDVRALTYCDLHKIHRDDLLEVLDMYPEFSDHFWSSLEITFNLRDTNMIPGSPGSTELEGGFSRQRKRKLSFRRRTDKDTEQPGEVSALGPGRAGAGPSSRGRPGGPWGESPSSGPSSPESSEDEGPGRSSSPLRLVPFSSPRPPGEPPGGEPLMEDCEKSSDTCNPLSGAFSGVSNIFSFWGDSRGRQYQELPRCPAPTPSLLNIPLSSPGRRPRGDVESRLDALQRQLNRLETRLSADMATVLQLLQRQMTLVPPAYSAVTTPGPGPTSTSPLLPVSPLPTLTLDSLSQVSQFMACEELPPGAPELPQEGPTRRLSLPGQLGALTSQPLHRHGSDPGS
# Chain of Thymidylate synthase (Homo sapiens) (P04818 2-313 limits assumed): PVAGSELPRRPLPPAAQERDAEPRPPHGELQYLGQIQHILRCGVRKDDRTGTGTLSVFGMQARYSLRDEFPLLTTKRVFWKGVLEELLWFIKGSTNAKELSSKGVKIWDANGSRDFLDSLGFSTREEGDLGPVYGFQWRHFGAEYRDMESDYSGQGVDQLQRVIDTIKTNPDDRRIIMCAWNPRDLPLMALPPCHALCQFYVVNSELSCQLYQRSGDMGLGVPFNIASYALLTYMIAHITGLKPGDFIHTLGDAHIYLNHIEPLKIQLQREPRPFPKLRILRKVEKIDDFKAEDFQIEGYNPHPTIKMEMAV
# Chain of Dihydrofolate reductase (P00374 whole entry): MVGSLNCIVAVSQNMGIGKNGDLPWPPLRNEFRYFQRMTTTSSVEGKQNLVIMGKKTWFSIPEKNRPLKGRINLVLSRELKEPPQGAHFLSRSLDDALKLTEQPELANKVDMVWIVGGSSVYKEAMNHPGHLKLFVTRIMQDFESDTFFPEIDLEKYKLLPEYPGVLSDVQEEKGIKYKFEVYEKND
# Chain of Cytochrome P450 2D6 (P10635 whole entry): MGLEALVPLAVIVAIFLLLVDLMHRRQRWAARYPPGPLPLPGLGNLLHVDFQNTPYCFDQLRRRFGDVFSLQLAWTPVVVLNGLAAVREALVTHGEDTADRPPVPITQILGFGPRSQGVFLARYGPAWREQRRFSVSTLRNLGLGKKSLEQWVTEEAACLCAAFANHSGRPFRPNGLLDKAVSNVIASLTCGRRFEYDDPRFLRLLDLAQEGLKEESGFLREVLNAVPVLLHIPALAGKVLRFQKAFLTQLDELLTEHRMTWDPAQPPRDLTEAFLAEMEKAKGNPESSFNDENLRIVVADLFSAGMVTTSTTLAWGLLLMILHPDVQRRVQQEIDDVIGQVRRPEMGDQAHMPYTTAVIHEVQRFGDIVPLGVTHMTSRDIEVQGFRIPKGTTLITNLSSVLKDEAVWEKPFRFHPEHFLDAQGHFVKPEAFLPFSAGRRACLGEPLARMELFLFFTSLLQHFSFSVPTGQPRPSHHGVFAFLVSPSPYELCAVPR
# Chain of Cytochrome P450 3A4 (P08684 whole entry): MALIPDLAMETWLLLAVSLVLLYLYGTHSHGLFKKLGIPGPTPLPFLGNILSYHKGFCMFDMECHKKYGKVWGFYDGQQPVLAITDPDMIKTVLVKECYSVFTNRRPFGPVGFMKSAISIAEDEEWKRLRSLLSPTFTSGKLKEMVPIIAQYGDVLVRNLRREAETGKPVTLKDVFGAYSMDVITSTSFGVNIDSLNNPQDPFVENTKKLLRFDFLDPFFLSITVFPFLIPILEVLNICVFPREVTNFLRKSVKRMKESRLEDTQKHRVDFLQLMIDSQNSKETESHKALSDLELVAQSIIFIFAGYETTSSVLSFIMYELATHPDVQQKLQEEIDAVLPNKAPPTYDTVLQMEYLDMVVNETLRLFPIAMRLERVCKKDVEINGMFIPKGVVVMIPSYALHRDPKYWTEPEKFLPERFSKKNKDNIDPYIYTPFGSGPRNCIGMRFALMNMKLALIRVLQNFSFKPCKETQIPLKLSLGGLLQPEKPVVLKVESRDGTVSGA
# Chain of Cytochrome P450 2C9 (P11712 whole entry): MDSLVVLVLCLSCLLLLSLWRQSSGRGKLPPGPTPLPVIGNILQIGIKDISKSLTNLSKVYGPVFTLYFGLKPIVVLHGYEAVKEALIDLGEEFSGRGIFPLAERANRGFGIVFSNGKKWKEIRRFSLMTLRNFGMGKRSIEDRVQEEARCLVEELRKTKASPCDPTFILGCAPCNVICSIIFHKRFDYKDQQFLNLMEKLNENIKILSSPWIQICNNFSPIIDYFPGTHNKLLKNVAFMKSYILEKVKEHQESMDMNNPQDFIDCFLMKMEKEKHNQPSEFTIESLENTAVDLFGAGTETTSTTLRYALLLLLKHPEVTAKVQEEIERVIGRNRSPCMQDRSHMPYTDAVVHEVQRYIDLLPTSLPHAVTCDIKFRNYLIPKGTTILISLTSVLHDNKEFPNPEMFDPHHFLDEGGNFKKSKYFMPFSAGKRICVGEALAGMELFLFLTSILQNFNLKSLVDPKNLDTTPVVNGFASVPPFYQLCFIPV
smiles,measurement,setting,value
O=c1c(O)c(-c2cccc(O)c2)oc2ccc(O)cc12,inhibition,Trypanosoma brucei [1],96%
same,solubility,[2],Soluble
same,inhibition,[3],inactive
same,inhibition,Leishmania mexicana [4],42 to 43%
same,IC50,[5],99.3 µM
same,inhibition (INH),Cytochrome P450 1A2 [6],Not Active
same,IC50,Cytochrome P450 1A2 [7],6.1 µM
same,half-life,[8],7.6 min
same,EC50,[9],3.27 µM
same,Activity,[10],Active
same,MNTC at 72 h,[11],> 100 µM
same,CC50 at 72 h,[12],53 µM
same,Drug uptake,[13],Not Active
same,Activity,786-0,Non-Toxic
same,inhibition,Leishmania mexicana [14],86%
same,IC50,Cytochrome P450 2C19,> 10 µM
same,IC50,Cytochrome P450 3A4,> 10 µM
same,selectivity ratio,in vitro,7
same,Drug uptake,[15],Not Active
same,CI,[16],>1
same,Activity,A549,Non-Toxic
same,Activity,WI-38,Non-Toxic
same,IC50,Dihydrofolate reductase,50 µM
same,MNTC at 72 h,[17],> 100 µM
same,Drug uptake,[18],Not Active
same,IC50,Cytochrome P450 2C9,> 10 µM
same,Drug uptake,[19],Not Active
same,IC50,[20],4.3 µM
same,EC50,[21],7.56 µM
same,IC50,Cytochrome P450 2D6,> 10 µM
same,EC50,[22],5.7 µM
same,inhibition,Trypanosoma brucei [23],42 to 43%
